The nature of data set [1]: Growth inhibition of human HEK293 cells at 10 uM after 24 hrs by MTT assay. Format: cell-based. As to conditions: read-out: GI. On the technique in general: Tetrazolium assays rely on reduction of a dye to a coloured formazan, in cell work by metabolically active cells.
Data set [2] relates to K562. Briefly: Growth inhibition of human K562 cells at 10 uM after 24 hrs by MTT assay. Format: functional. Particulars: K562, 24 h, read-out: GI.
Data set [3] concerns HepG2. As to the kind of experiment: Growth inhibition of human HepG2 cells at 10 uM after 24 hrs by MTT assay. Format: functional. Particulars: HepG2, 24 h, read-out: GI.
A further data set relates to MDA-MB-231. Briefly: Growth inhibition of human MDA-MB-231 cells at 10 uM after 24 hrs by MTT assay. In kind it is functional. As to conditions: MDA-MB-231, 24 h, read-out: GI.
A further data set relates to Saccharomyces cerevisiae. As to the kind of experiment: Inhibition of yeast SIRT2 assessed as derepression of Ura3 gene at 50 uM in presence of 5-fluoroorotic acid.
In data set [4] the test system is K562. Briefly: Cytotoxicity against human K562 cells after 24 hrs by MTT assay. In kind it is functional, cell-based. As to conditions: K562, 24 h.
The subject of data set [5] is HepG2. Briefly: Cytotoxicity against human HepG2 cells after 24 hrs by MTT assay. In kind it is functional, cell-based. As to conditions: HepG2, 24 h.
Data set [6] deals with HepG2. As to the kind of experiment: Ratio of doxorubicin IC50 to compound IC50 for human HepG2 cells. In kind it is functional.

The structures appear in SMILES notation.

As for `CCCCCC#Cc1c(-c2ccccc2)oc(=O)c2c3c(sc12)CCCCC3`, the inhibition at 24 h, 10 µM in data set [1] was 0.44%. In addition, the inhibition of growth at 10 µM in the data set on K562 [2] is 12.3%; in the data set with HepG2 [3], 24.8%; in the data set on MDA-MB-231 it was 41.9%.
On the same counts, the results for `O=c1oc(-c2ccccc2)c(I)c2sc3c(c12)CCCC3` are 0.6%, 38.1%, 0% and 22.7%.
Turning to `CCCCC#Cc1c(-c2ccccc2)oc(=O)c2c3c(sc12)CCCCC3`, in data set [1], the inhibition at 24 h, 10 µM was determined as 3.2%. In addition, the inhibition of growth at 10 µM in the data set on K562 [2] came out at 66.4%; with HepG2 [3], 24.1%; with MDA-MB-231, 25.2%. For the same compound, the inhibition in the data set on Saccharomyces cerevisiae worked out at 30%. In addition, the IC50 in the data set with K562 [4] worked out at 2.28 µM.
As to `O=c1oc(-c2ccccc2)c(-c2ccccc2)c2sc3c(c12)CCC3`, the inhibition at 24 h, 10 µM in data set [1] was determined as 4%. Besides, the inhibition of growth at 10 µM in the data set with K562 [2] is 26.7%; in the data set on HepG2 [3], 13.4%; with MDA-MB-231, 12.4%.
For `CC(C)(O)C#Cc1c(-c2ccccc2)oc(=O)c2c3c(sc12)CCCCC3`, the inhibition at 24 h, 10 µM in data set [1] was 4.2%. The inhibition of growth at 10 µM came to 9.32% in the data set with K562 [2], 25% in the data set with HepG2 [3] and 21.6% in the data set on MDA-MB-231.
With `Cc1ccc(NC(=O)c2ccc(CN3CCN(C)CC3)cc2)cc1Nc1nccc(-c2cccnc2)n1` [IMATINIB], the midpoint of inhibition in the data set on K562 [4], the IC50, lay at 0.1 µM.
As for `Cc1ccc(-c2oc(=O)c3c4c(sc3c2I)CCCC4)cc1`, the inhibition at 24 h, 10 µM in data set [1] came to 0%. Besides, the IC50 worked out at 2.38 µM with HepG2 [5] and 2.33 µM with K562 [4]. Further, the inhibition of growth at 10 µM in the data set with K562 [2] is 64.2%; with HepG2 [3], 68.2%; with MDA-MB-231, 32.5%. For the same compound, the inhibition with Saccharomyces cerevisiae amounted to 30%. The “Ratio IC50” value with HepG2 [6] was above 2.
For the compound `O=c1oc(-c2ccccc2)c(I)c2sc3c(c12)CCCCC3`, the inhibition at 24 h, 10 µM in data set [1] came out at 0.23%. Also, the inhibition of growth at 10 µM turned out to be 30.3% in the data set with K562 [2], 12% in the data set with HepG2 [3] and 40.1% with MDA-MB-231.
As for `O=c1oc(-c2ccccc2)c(C#Cc2ccccc2)c2sc3c(c12)CCCCC3`, the inhibition at 24 h, 10 µM in data set [1] stood at 1.7%. Further, the inhibition of growth at 10 µM in the data set on K562 [2] is 13.9%; with HepG2 [3], 20.1%; with MDA-MB-231, 34.7%.
On the same counts, the results for `O=c1oc(-c2ccccc2)c(-c2ccc(O)cc2)c2sc3c(c12)CCCC3` are 0.5%, 9.85%, 23% and 22.9%.
`CC(C)(C)OC(=O)N1CCc2c(sc3c(I)c(-c4ccccc4)oc(=O)c23)C1`: the inhibition at 24 h, 10 µM in data set [1] worked out at 9.03%. The inhibition of growth at 10 µM was determined as 8.34% in the data set with K562 [2], 15.5% with HepG2 [3] and 27.5% in the data set with MDA-MB-231.
On the same counts, the results for `O=c1oc(-c2ccccc2)c(-c2ccccc2)c2sc3c(c12)CCCCC3` are 0.01%, 24%, 35.9% and 7.42%.
On the same counts, the results for `CCOC(=O)/C=C/c1c(-c2ccccc2)oc(=O)c2c3c(sc12)CCCCC3` are 1.11%, 27.4%, 12% and 42.6%.

By IC50 is commonly meant the concentration needed to halve the response being measured. A higher IC50 goes with lower potency.

These data come from ChEMBL document CHEMBL2040793, “Thieno[3,2-c]pyran-4-one based novel small molecules: their synthesis, crystal structure analysis and in vitro evaluation as potential anticancer agents” (Bioorg Med Chem Lett, 2012).
